Measured values from patent US20110190137A1, “METHOD TO INHIBIT ETHYLENE RESPONSES IN PLANTS” (priority 2003, published 2011).

What was measured:
[1] = tested on: ethylene-induced epinasty in Patio variety tomato plants; experiment: Tomato epinasty test, spray application treatment; assay type: in vivo; conditions: spray 10 ppm in 10% acetone/90% water, 0.05% Silwett L-77; 10 ppm ethylene; scale 0 to 10 (10 = complete protection)
Procedure: (§1) Objective: The test procedure is designed to determine the ability of an experimental compound to block the epinastic growth response induced by ethylene in tomato plants when the experimental compound is administered either as a volatile gas or as a component of a spray solution.
(§2) Treatment chambers are of an appropriate size for the test plants and are airtight. Each is fitted with a reusable septum to be used for injection of ethylene. Test plants are Patio variety tomato seedlings planted two plants per three inch square plastic pot.
Spray application treatment entails using a DeVilbiss atomizer to completely cover all foliage and stems of two pots of Patio var. tomato plants with the appropriate amount of experimental compound dissolved in 10% acetone/90% water with 0.05% Silwett L-77 surfactant. Plants are air-dried in a drying hood for four hours then transferred to a 4.8 L polystyrene chamber which is sealed.
Ethylene gas equal to 10 ppm v/v final concentration is injected into the sealed chamber. Sixteen hours later the chambers are opened in an exhaust hood, allowed to air and the plants scored visually for the degree of protection against ethylene-induced epinasty conferred by the experimental compound when compared to ethylene treated and untreated controls on a scale of 0 to 10. A rating of 10 means complete protection. A rating of 0 means no protection from the effects of ethylene.

[2] = tested on: ethylene-induced epinasty in Patio variety tomato plants; experiment: Tomato epinasty test, volatile gas treatment; assay type: in vivo; conditions: for Gas @ 10 ppm: visual rating of protection against ethylene-induced epinasty: gas 10 ppm v/v, 10 ppm ethylene, scale 0 to 10 (10 = complete protection); for Gas @ 1000 ppm: visual rating of protection against ethylene-induced epinasty: gas 1000 ppm v/v, 10 ppm ethylene after 4 h, scored 16 h later, scale 0 (no protection) to 10 (complete protection)
Procedure: as §1, §2
Volatile gas treatment entails placing two pots of Patio var. tomatoes into a polystyrene 4.8 L volume treatment chamber along with one-half (upper or lower section) of a 50×9 mm plastic Petri dish containing a Gelman filter pad. The appropriate amount of experimental compound, dissolved in 1.0 ml acetone, is pipetted onto the filter pad and the chamber immediately sealed. Four hours later ethylene gas equal to 10 ppm v/v final concentration is injected into the sealed chamber. Sixteen hours later the chambers are opened in an exhaust hood, allowed to air and the plants scored visually for the degree of protection against ethylene-induced epinasty conferred by the experimental compound when compared to ethylene treated and untreated controls on a scale of 0 to 10. A rating of 10 means complete protection. A rating of 0 means no protection from the effects of ethylene. Gas treatment concentrations are volume/volume.

Row | Structure (SMILES) | Spray @10 ppm: visual rating of protection against ethylene-induced epinasty [1] | Gas @ 10 ppm: visual rating of protection against ethylene-induced epinasty [2] | Gas @ 1000 ppm: visual rating of protection against ethylene-induced epinasty [2] | Gas, tested at 850 ppm: rating of protection against epinasty ([2]; gas 850 ppm (footnote b or in cell), scale 0 to 10) | Gas @ 551 ppm: rating of protection against epinasty ([2]; gas 551 ppm (in cell), scale 0 to 10)
1 | O=C(OCCC1=CC1)c1cnc(Cl)c(Cl)c1 [Compound 50] | 0 | 0 | 9 |  | 
2 | C1=C(CC2CCCCC2)C1 [Compound 23] | 10 | 10 |  |  | 
3 | CCOC(=O)CCC1=C(Br)C1 [Compound 76] | 0 | 10 |  |  | 
4 | CC(C)(C)[Si](C)(C)OCCCCCCCC1=CC1 [Compound 82, 1-(7-T-butyldimethylsilyloxyheptyl)-cyclopropene] | 0 | 3 | 10 |  | 
5 | C[Si](C)(C)CC1=CC1 [Compound 64, 1-Trimethylsilylmethylcyclopropene] | 9 | 10 |  |  | 
6 | CCCCCCCCC1=C(B2OCO2)C1 [Compound 38, 2-Octyl-1-(2-(2-boro-1,3dioxetane))-cyclopropene] | 0 | 3 |  | 10(@850 | 
7 | O=C(OCC1=CC1)c1ccco1 [Compound 47] | 0 | 0 |  |  | 10(@551
8 | Clc1ccc(CC2=CC2)cc1 [Compound 1, 1-Chloro-4-cycloprop-1-enylmethyl-benzene] | 10 | 10 |  |  | 
9 | CCC1=C(n2nc(-c3ccc(Cl)cc3)ccc2=O)C1 [Compound 60, 1-Ethyl-2-(3-(4-chlorophenol)-pyridaz-6-on-1-yl)-cyclopropene] | 0 | 4 | 0 |  | 
10 | CCCCCCCCCC1(C)C=C1 [Compound 73, 3-Methyl-3-nonyl-cyclopropene] | 0 | 0 | 8 |  | 
